Organism: Rattus norvegicus
Experiment: DrugMatrix - Regimen: Daily Repeat
Format: toxicity, organism-based, Sprague-Dawley
Design: regimen Daily Repeat, gender Male, age 6-8 weeks
Details: in vivo, iv, vehicle 100 % SALINE; for ABSOLUTE BASOPHIL / ABSOLUTE EOSINOPHIL / ABSOLUTE LYMPHOCYTE / ABSOLUTE MONOCYTE / ABSOLUTE SEGMENTED NEUTROPHIL / BASOPHIL / EOSINOPHIL / ERYTHROCYTE COUNT / HEMATOCRIT / HEMOGLOBIN / LEUKOCYTE COUNT / LYMPHOCYTE / MEAN CORPUSCULAR HEMOGLOBIN / MEAN CORPUSCULAR HEMOGLOBIN CONCENTRATION / MEAN CORPUSCULAR VOLUME / MONOCYTE / NEUTROPHIL / NUCLEATED RED BLOOD CELLS / PLATELET COUNT: tissue Blood; for ALANINE AMINOTRANSFERASE / ALBUMIN / ALKALINE PHOSPHATASE / ASPARTATE AMINOTRANSFERASE / BLOOD UREA NITROGEN / CARBON DIOXIDE / CHLORIDE / CHOLESTEROL / CREATINE PHOSPHOKINASE / CREATININE / GLUCOSE / LACTATE DEHYDROGENASE / LIPASE / PHOSPHORUS / POTASSIUM / SODIUM / TOTAL BILIRUBIN / TOTAL PROTEIN / URIC ACID: tissue Plasma
[1] = 0.005 mg/kg, 120 h, dose level Low, time 5 day
[2] = 0.05 mg/kg, 72 h, dose level High, time 3 day
[3] = 0.05 mg/kg, 120 h, dose level High, time 5 day

CC(=O)O[C@H]1C[C@@H]2CC[C@@H]3[C@H](CC[C@@]4(C)[C@H]3C[C@H]([N+]3(C)CCCCC3)[C@@H]4OC(C)=O)[C@@]2(C)C[C@@H]1N1CCCCC1.[Br-] [VECURONIUM BROMIDE]
ABSOLUTE BASOPHIL [1]: 0 CELLS/uL | ABSOLUTE EOSINOPHIL [1]: 82.33 CELLS/uL | ABSOLUTE LYMPHOCYTE [1]: 12022.67 CELLS/uL | ABSOLUTE MONOCYTE [1]: 265.33 CELLS/uL | ABSOLUTE SEGMENTED NEUTROPHIL [1]: 796.33 CELLS/uL | BASOPHIL [1]: 0% | EOSINOPHIL [1]: 0.67% | ERYTHROCYTE COUNT [1]: 5.48 x10E6/uL | HEMATOCRIT [1]: 34.87% | HEMOGLOBIN [1]: 13.83 G/DL | LEUKOCYTE COUNT [1]: 13.17 x10E3/uL | LYMPHOCYTE [1]: 91% | MEAN CORPUSCULAR HEMOGLOBIN [1]: 25.23 pg | MEAN CORPUSCULAR HEMOGLOBIN CONCENTRATION [1]: 39.7 G/DL | MEAN CORPUSCULAR VOLUME [1]: 63.63 fL | MONOCYTE [1]: 2% | NEUTROPHIL [1]: 6.33% | NUCLEATED RED BLOOD CELLS [1]: 0 /100WBC | PLATELET COUNT [1]: 1117 x10E3/uL | ALANINE AMINOTRANSFERASE [1]: 68.67 u/L | ALBUMIN [1]: 4.17 G/DL | ALKALINE PHOSPHATASE [1]: 419 u/L | ASPARTATE AMINOTRANSFERASE [1]: 85 u/L | BLOOD UREA NITROGEN [1]: 19.33 mg/dL | CARBON DIOXIDE [1]: 30 mmol/L | CHLORIDE [1]: 101.33 MEQ/L | CHOLESTEROL [1]: 79 mg/dL | CREATINE PHOSPHOKINASE [1]: 251.67 u/L | CREATININE [1]: 0.25 mg/dL | GLUCOSE [1]: 172 mg/dL | LACTATE DEHYDROGENASE [1]: 116.67 u/L | LIPASE [1]: 10.33 u/L | PHOSPHORUS [1]: 12 mg/dL | POTASSIUM [1]: 5.82 MEQ/L | SODIUM [1]: 144.07 MEQ/L | TOTAL BILIRUBIN [1]: 0.2 mg/dL | TOTAL PROTEIN [1]: 5.9 G/DL | URIC ACID [1]: 1.27 mg/dL | ABSOLUTE BASOPHIL [2]: 0 CELLS/uL | ABSOLUTE EOSINOPHIL [2]: 0 CELLS/uL | ABSOLUTE LYMPHOCYTE [2]: 14697.33 CELLS/uL | ABSOLUTE MONOCYTE [2]: 387 CELLS/uL | ABSOLUTE SEGMENTED NEUTROPHIL [2]: 1049 CELLS/uL | BASOPHIL [2]: 0% | EOSINOPHIL [2]: 0% | ERYTHROCYTE COUNT [2]: 5.35 x10E6/uL | HEMATOCRIT [2]: 33.93% | HEMOGLOBIN [2]: 13.67 G/DL | LEUKOCYTE COUNT [2]: 16.13 x10E3/uL | LYMPHOCYTE [2]: 91.33% | MEAN CORPUSCULAR HEMOGLOBIN [2]: 25.53 pg | MEAN CORPUSCULAR HEMOGLOBIN CONCENTRATION [2]: 40.27 G/DL | MEAN CORPUSCULAR VOLUME [2]: 63.37 fL | MONOCYTE [2]: 2.33% | NEUTROPHIL [2]: 6.33% | NUCLEATED RED BLOOD CELLS [2]: 0 /100WBC | PLATELET COUNT [2]: 1089.33 x10E3/uL | ALANINE AMINOTRANSFERASE [2]: 70.67 u/L | ALBUMIN [2]: 4.17 G/DL | ALKALINE PHOSPHATASE [2]: 375.33 u/L | ASPARTATE AMINOTRANSFERASE [2]: 108 u/L | BLOOD UREA NITROGEN [2]: 15.67 mg/dL | CARBON DIOXIDE [2]: 28.33 mmol/L | CHLORIDE [2]: 103.33 MEQ/L | CHOLESTEROL [2]: 83 mg/dL | CREATINE PHOSPHOKINASE [2]: 435 u/L | CREATININE [2]: 0.25 mg/dL | GLUCOSE [2]: 145.33 mg/dL | LACTATE DEHYDROGENASE [2]: 607.67 u/L | LIPASE [2]: 12 u/L | PHOSPHORUS [2]: 12.1 mg/dL | POTASSIUM [2]: 6.48 MEQ/L | SODIUM [2]: 142.47 MEQ/L | TOTAL BILIRUBIN [2]: 0.17 mg/dL | TOTAL PROTEIN [2]: 5.87 G/DL | URIC ACID [2]: 1.4 mg/dL | ABSOLUTE BASOPHIL [3]: 0 CELLS/uL | ABSOLUTE EOSINOPHIL [3]: 0 CELLS/uL | ABSOLUTE LYMPHOCYTE [3]: 14510.33 CELLS/uL | ABSOLUTE MONOCYTE [3]: 51 CELLS/uL | ABSOLUTE SEGMENTED NEUTROPHIL [3]: 705.33 CELLS/uL | BASOPHIL [3]: 0% | EOSINOPHIL [3]: 0% | ERYTHROCYTE COUNT [3]: 5.55 x10E6/uL | HEMATOCRIT [3]: 33.37% | HEMOGLOBIN [3]: 13.47 G/DL | LEUKOCYTE COUNT [3]: 15.27 x10E3/uL | LYMPHOCYTE [3]: 95% | MEAN CORPUSCULAR HEMOGLOBIN [3]: 24.3 pg | MEAN CORPUSCULAR HEMOGLOBIN CONCENTRATION [3]: 40.33 G/DL | MEAN CORPUSCULAR VOLUME [3]: 60.17 fL | MONOCYTE [3]: 0.33% | NEUTROPHIL [3]: 4.67% | NUCLEATED RED BLOOD CELLS [3]: 0 /100WBC | PLATELET COUNT [3]: 1036.67 x10E3/uL | ALANINE AMINOTRANSFERASE [3]: 50.33 u/L | ALBUMIN [3]: 3.93 G/DL | ALKALINE PHOSPHATASE [3]: 347.67 u/L | ASPARTATE AMINOTRANSFERASE [3]: 100.33 u/L | BLOOD UREA NITROGEN [3]: 18 mg/dL | CARBON DIOXIDE [3]: 26 mmol/L | CHLORIDE [3]: 104 MEQ/L | CHOLESTEROL [3]: 57.67 mg/dL | CREATINE PHOSPHOKINASE [3]: 706.67 u/L | CREATININE [3]: 0.15 mg/dL | GLUCOSE [3]: 145.67 mg/dL | LACTATE DEHYDROGENASE [3]: 811.33 u/L | LIPASE [3]: 9.67 u/L | PHOSPHORUS [3]: 10.97 mg/dL | POTASSIUM [3]: 6.19 MEQ/L | SODIUM [3]: 144.13 MEQ/L | TOTAL BILIRUBIN [3]: 0.2 mg/dL | TOTAL PROTEIN [3]: 5.53 G/DL | URIC ACID [3]: 1.17 mg/dL

Source: ChEMBL document CHEMBL3885881, “DrugMatrix”
